Assay results published in ChEMBL document CHEMBL3779781, “New direct inhibitors of InhA with antimycobacterial activity based on a tetrahydropyran scaffold” (Eur J Med Chem, 2016).
Converted amounts (≈) assume the structure as drawn.

Assays:
[1] = tested on: Mycobacterium tuberculosis; experiment: Antimycobacterial activity against Mycobacterium bovis BCG overexpressing InhA after 2 weeks; type: functional; settings: variant bovis BCG, 336 h
[2] = tested on: Mycobacterium tuberculosis; experiment: Antimycobacterial activity against Mycobacterium bovis BCG after 2 weeks; type: functional; settings: variant bovis BCG, 336 h
[3] = tested on: Mycobacterium tuberculosis; experiment: Ratio of MIC for Mycobacterium bovis BCG overexpressing InhA to MIC for Mycobacterium bovis BCG; type: functional, variant bovis BCG

| Structure (SMILES) | MIC [1] [µg/mL] | MIC [2] [µg/mL] | Ratio [3] |
| --- | --- | --- | --- |
| Cc1cc(C)n(Cc2ccc(C(=O)NCC3(c4nc(-c5ccccc5)cs4)CCOCC3)cc2)n1 | 31.3 (≈ 64.3 µM) | 7.8 (≈ 16 µM) | 4 |
| NNC(=O)c1ccncc1 [ISONIAZID] | > 16 | 0.75 (≈ 5.47 µM) | >21 |
| NC[C@H]1O[C@H](O[C@H]2[C@H](O)[C@@H](O[C@H]3O[C@H](CO)[C@@H](O)[C@H](N)[C@H]3O)[C@H](N)C[C@@H]2N)[C@H](O)[C@@H](O)[C@@H]1O [KANAMYCIN] | 0.6 (≈ 1.24 µM) | 0.6 (≈ 1.24 µM) | 1 |
